In ChEMBL document CHEMBL1130562, “Potent and selective inhibitors of the Abl-kinase: phenylamino-pyrimidine (PAP) derivatives” (Bioorg Med Chem Lett, 1997):

Legend:
[1] = target: cAMP-dependent protein kinase (PKA) (Homo sapiens, UniProt P22694+P17612+P22612); experiment: Inhibition of protein kinase A.; format: protein assay, unidentified
[2] = target: Tyrosine-protein kinase ABL1 (Homo sapiens, UniProt P00519)
Description: Inhibition of v-Abl tyrosine kinase.

[3] = target: Protein kinase C delta type (Homo sapiens, UniProt Q05655); experiment: Inhibition of protein kinase C delta.
Chain of Protein kinase C delta type (Q05655 whole entry): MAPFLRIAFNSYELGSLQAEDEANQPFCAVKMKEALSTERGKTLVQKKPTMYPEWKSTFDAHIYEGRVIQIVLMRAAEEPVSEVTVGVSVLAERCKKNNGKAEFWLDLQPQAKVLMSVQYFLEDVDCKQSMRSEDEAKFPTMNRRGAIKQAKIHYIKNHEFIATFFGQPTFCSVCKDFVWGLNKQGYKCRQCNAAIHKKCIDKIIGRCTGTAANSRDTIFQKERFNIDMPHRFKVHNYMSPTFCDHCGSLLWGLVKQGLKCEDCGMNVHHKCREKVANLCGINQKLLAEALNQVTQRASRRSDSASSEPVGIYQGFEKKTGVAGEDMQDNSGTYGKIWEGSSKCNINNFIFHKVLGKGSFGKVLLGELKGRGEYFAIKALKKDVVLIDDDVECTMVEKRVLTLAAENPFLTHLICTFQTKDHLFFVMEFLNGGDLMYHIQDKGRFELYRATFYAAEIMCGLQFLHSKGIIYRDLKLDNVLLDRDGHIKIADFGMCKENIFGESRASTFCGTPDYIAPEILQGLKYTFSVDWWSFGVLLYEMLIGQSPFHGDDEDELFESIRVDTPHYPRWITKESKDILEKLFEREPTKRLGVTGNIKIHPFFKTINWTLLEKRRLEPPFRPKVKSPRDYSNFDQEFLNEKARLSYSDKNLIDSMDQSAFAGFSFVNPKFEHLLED

[4] = target: Protein kinase C alpha type (Homo sapiens, UniProt P17252); experiment: Inhibition of protein kinase C alpha.
[5] = target: Platelet-derived growth factor receptor (Homo sapiens, UniProt P09619+P16234); experiment: Inhibition of the platelet-derived growth factor receptor.
[6] = target: Epidermal growth factor receptor (Homo sapiens, UniProt P00533)
Chain of Epidermal growth factor receptor (P00533 whole entry): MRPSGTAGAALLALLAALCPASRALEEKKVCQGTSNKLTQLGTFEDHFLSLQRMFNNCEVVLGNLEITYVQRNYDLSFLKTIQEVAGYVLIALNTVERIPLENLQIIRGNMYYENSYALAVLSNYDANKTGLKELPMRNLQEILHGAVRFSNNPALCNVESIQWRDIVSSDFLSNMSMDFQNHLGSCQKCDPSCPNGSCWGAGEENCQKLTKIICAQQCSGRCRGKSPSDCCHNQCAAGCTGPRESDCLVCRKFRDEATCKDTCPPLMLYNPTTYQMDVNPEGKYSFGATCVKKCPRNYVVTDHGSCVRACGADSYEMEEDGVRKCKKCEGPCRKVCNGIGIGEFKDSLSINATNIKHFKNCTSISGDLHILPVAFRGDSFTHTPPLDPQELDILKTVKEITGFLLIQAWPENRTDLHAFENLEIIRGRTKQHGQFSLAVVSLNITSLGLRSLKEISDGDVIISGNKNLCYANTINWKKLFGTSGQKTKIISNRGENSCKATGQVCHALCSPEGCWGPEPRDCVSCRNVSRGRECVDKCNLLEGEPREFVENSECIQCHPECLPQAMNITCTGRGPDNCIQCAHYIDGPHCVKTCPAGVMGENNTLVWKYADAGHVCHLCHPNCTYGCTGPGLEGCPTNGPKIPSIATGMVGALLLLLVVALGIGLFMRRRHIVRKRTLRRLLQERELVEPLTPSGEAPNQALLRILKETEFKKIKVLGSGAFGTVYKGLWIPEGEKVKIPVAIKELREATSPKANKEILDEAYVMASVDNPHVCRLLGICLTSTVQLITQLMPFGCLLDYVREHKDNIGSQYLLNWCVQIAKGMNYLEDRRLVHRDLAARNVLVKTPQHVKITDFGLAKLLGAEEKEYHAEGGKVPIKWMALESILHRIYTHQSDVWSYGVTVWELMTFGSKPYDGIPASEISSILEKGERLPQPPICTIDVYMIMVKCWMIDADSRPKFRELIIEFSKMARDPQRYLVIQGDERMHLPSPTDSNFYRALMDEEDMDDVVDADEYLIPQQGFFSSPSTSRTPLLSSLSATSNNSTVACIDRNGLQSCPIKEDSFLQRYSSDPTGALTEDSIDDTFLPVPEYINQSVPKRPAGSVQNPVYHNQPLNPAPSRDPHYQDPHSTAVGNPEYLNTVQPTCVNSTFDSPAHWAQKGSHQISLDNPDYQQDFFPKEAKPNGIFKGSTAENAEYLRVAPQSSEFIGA
Description: Inhibition of the epidermal growth factor receptor.

[7] = target: Proto-oncogene tyrosine-protein kinase Src (Homo sapiens, UniProt P12931)
Chain of Proto-oncogene tyrosine-protein kinase Src (P12931 2-536 limits assumed): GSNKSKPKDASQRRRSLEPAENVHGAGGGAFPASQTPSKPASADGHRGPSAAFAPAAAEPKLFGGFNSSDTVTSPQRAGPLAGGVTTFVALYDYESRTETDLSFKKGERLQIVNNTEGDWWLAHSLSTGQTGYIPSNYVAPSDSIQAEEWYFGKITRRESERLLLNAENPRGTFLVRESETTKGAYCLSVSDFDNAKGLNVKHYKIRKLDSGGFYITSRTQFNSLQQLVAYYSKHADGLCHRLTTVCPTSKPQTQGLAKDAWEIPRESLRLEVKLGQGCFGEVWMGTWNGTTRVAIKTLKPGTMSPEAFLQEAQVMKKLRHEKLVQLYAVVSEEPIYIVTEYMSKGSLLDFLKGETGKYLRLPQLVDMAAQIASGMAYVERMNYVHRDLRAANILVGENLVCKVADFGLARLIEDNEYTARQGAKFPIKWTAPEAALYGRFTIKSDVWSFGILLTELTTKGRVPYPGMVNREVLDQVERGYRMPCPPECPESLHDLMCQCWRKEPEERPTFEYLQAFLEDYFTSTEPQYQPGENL
Description: Inhibition of c-Src-tyrosine kinase.

[8] = Dissociation constant pKa was determined; format: physicochemical

Chain of Tyrosine-protein kinase ABL1 (P00519 whole entry, looked up): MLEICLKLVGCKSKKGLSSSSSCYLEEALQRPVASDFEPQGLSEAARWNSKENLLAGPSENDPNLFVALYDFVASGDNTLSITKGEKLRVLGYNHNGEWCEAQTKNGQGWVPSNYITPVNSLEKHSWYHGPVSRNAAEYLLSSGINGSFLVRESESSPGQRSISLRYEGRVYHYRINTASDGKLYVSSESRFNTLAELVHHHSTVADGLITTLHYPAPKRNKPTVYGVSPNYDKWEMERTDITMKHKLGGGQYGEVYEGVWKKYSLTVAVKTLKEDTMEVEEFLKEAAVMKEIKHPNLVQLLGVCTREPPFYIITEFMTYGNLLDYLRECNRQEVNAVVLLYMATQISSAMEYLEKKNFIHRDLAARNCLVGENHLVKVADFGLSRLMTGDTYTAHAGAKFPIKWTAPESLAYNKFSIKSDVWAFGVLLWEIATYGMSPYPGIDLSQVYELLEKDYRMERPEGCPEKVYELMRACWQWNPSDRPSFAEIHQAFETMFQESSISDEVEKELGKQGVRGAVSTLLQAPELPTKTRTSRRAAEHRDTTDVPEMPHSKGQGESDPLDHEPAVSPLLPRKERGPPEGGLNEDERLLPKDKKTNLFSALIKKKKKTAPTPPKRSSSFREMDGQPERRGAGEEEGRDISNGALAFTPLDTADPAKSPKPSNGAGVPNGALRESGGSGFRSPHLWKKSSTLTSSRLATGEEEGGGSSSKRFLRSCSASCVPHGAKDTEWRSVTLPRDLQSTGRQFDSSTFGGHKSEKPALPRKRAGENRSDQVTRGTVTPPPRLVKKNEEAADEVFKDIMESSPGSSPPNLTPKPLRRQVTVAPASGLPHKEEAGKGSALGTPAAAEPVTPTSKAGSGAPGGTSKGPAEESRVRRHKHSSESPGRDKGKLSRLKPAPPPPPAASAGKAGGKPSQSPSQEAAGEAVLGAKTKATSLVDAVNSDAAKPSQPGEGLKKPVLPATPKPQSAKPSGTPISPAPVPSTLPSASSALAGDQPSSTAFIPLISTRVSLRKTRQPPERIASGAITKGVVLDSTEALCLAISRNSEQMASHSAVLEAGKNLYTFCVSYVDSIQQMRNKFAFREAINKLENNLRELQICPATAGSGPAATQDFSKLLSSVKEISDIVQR

IC50 [1] [µM] | IC50 [2] [µM] | IC50 [3] [µM] | IC50 [4] [µM] | IC50 [5] [µM] | IC50 [6] [µM] | IC50 [7] [µM] | Structure (SMILES) | pKa [8]
> 500 | 1.5 |  | 240 |  |  |  | Cc1ccc(N)cc1Nc1nccc(-c2cccnc2)n1 | 
> 500 | 3.3 | 21 | 1 | 18 | > 100 | 1.6 | c1cncc(-c2ccnc(Nc3cccc(-n4ccnc4)c3)n2)c1 | 
2 | 0.35 | 4.4 | 0.18 | 5 | 0.53 | 0.5 | NCCCn1ccc2c(-c3ccnc(Nc4cccc(OC(F)(F)C(F)F)c4)n3)cccc21 | 
> 500 | 1.5 | 23 | 1.6 | > 10 | > 100 | > 100 | Clc1cccc(Nc2nccc(-c3cccnc3)n2)c1 | 
> 500 | 0.5 | 24 | 1.3 | > 100 | > 100 | 78 | O=C(Nc1cccc(Nc2nccc(-c3cccnc3)n2)c1)c1ccncc1 | 
> 500 | > 100 | > 100 | 0.3 | > 10 | > 100 | > 100 | FC(F)C(F)(F)Oc1cccc(Nc2nccc(-c3ccncc3)n2)c1 | 
> 500 | 61 | > 500 | 2.6 | > 100 | > 100 | > 100 | O=[N+]([O-])c1cccc(Nc2nccc(-c3ccncc3)n2)c1 | 
> 500 | 34 | > 500 | 0.79 | > 100 | 100 | 93 | O=[N+]([O-])c1cccc(Nc2nccc(-c3cccnc3)n2)c1 | 
475 | 0.1 |  |  | 0.2 | > 100 | 7.8 | CN1CCN(Cc2ccc(C(=O)Nc3cccc(Nc4nccc(-c5cccnc5)n4)c3)cc2)CC1 | 
> 500 | 1 |  |  | 0.8 | > 100 | > 100 | Cc1ccc(C(=O)Nc2cccc(Nc3nccc(-c4cccnc4)n3)c2)cc1 | 
 | 0.4 |  |  | > 10 |  | 9.8 | NCCCNC(=O)c1cccc(Nc2nccc(-c3cccnc3)n2)c1 | 

The remaining lines, values behind:

Structure (SMILES) | IC50 [1] [µM] | IC50 [2] [µM] | IC50 [3] [µM] | IC50 [4] [µM] | IC50 [5] [µM] | IC50 [6] [µM] | IC50 [7] [µM] | pKa [8]
Cc1ccc(NC(=O)c2ccc3ccccc3c2)cc1Nc1nccc(-c2cccnc2)n1 | > 100 | 0.2 |  |  |  |  |  | 
Cc1ccc(C(=O)Nc2ccc(C)c(Nc3nccc(-c4cccnc4)n3)c2)cc1 | > 100 |  |  |  |  |  |  | 
Cc1ccc(NC(=O)c2ccccc2)cc1Nc1nccc(-c2cccnc2)n1 | > 500 | 0.4 |  |  |  |  |  | 
Cc1ccc(NC(=O)c2ccc(Cl)cc2)cc1Nc1nccc(-c2cccnc2)n1 | > 100 | 0.8 | > 100 |  |  |  |  | 
O=C(Nc1cccc(Nc2nccc(-c3cccnc3)n2)c1)c1ccccc1 | > 500 | 0.4 |  |  |  |  |  | 
O=C(Nc1cccc(Nc2nccc(-c3cccnc3)n2)c1)c1ccccn1 | > 500 | 3.8 |  |  | > 100 |  | 90 | 
COc1ccccc1C(=O)Nc1cccc(Nc2nccc(-c3cccnc3)n2)c1 | > 500 | 1.9 | > 500 | 0.32 | 1 | 100 | > 100 | 
COc1ccccc1C(=O)Nc1ccc(C)c(Nc2nccc(-c3cccnc3)n2)c1 | > 500 | 0.8 | > 100 | 80 |  |  |  | 
O=C(Nc1cccc(Nc2nccc(-c3cccnc3)n2)c1)c1cccnc1 | > 500 | 0.15 | 17 | 1.7 | 50 | > 100 | 9 | 2.56
O=C(Nc1cccc(Nc2nccc(-c3cccnc3)n2)c1)c1ccc(F)cc1 | > 500 | 0.2 |  |  | 3 | > 50 | > 100 | 
CC(=O)Nc1ccc(C)c(Nc2nccc(-c3cccnc3)n2)c1 | > 500 | 5.8 |  | 500 |  |  |  | 
FC(F)C(F)(F)Oc1cccc(Nc2nccc(-c3c[nH]c4ccccc34)n2)c1 | 73 | 0.37 | 1.4 | 0.29 | > 10 | 1.8 | 2.2 | 
O=C(O)c1ccccc1C(=O)Nc1cccc(Nc2nccc(-c3cccnc3)n2)c1 | > 500 | 2 |  |  | > 100 |  | 44 | 
O=C(Nc1cccc(Nc2nccc(-c3cccnc3)n2)c1)c1cccs1 | > 500 | 0.3 |  |  | 20 | > 50 | 3 | 
CCCCCC(=O)Nc1cccc(Nc2nccc(-c3cccnc3)n2)c1 |  | 0.2 | 19 | 2 | 0.6 | > 100 | 3.7 | 
COC(=O)c1cccc(Nc2nccc(-c3cccnc3)n2)c1 | > 500 | 5.1 |  |  | > 10 |  | 90 | 
Nc1cccc(Nc2nccc(-c3ccncc3)n2)c1 |  | 0.6 |  |  | > 10 |  | 16 | 
Nc1cccc(Nc2nccc(-c3cccnc3)n2)c1 | 6 | 0.7 | > 500 | 210 | > 100 |  | 14 | 
O=C(O)c1cccc(Nc2nccc(-c3cccnc3)n2)c1 |  | 8 | > 100 | 45 | > 10 |  | 126 | 
FC(F)C(F)(F)Oc1cccc(Nc2nccc(-c3ccc(Cl)cc3)n2)c1 | > 500 | > 50 | > 100 | 0.85 | > 10 | > 100 | > 100 | 
c1ccc(Nc2nccc(-c3cccnc3)n2)cc1 | > 500 | 1.8 | 39 | 10.5 | > 10 | 100 | > 100 | 
O=C(Nc1cccc(Nc2nccc(-c3cccnc3)n2)c1)C1CCCCC1 | > 500 | 0.45 |  |  | 0.8 | > 100 | 46 | 
c1cc(Nc2nccc(-c3cccnc3)n2)cc(OCCn2ccnc2)c1 | 340 | 1 | 34 | 1.5 | > 10 | 7.1 | 4.9 | 
N#Cc1ccc(C(=O)Nc2cccc(Nc3nccc(-c4cccnc4)n3)c2)cc1 | > 500 | 1.3 | > 500 | 0.35 | 1.5 | > 100 | > 100 | 
O=[N+]([O-])c1cccc(Nc2nccc(-c3ccccn3)n2)c1 | > 500 | 1.2 | > 500 | 2.5 | > 100 | > 100 | > 100 | 
